Measurements taken from patent publication US20260183369A1, “CHEMERIN-CONTAINING FORMULATION FOR TREATING DRY EYE DISEASE” (OKYO Pharma Limited, priority 2022, published 2026).
Where two headings read alike, the source gives them in different places. Square brackets hold non-standard residues; d marks the D form. Peptide text beside a SMILES is read from it. * marks the point of attachment. PEG8 = NCCOCCOCCOCCOCCOCCOCCOCCOCCC(=O)O; Palmitoyl = CCCCCCCCCCCCCCCC(=O)*; Tic = O=C(O)[C@@H]1Cc2ccccc2CN1

Experiment: solubility and pH stability of OK-101 in sodium phosphate buffer
Type: physicochemical
Details: read-out: concentration of OK-101 observed (solubility)
Method: The solubility and pH stability of OK-101 at a target concentration of 0.05% w/v, was tested in either 50 mM or 100 mM sodium phosphate buffer. For each concentration of sodium phosphate buffer, the solubility and pH stability were determined in three separate buffer batches, each with a different starting pH.

solubility (three batches of 50 mM sodium phosphate buffer): > 25 mg/mL
solubility (three batches of 100 mM sodium phosphate buffer): > 30 mg/mL
Structure (SMILES): CCCCCCCCCCCCCCCC(=O)NCCOCCOCCOCCOCCOCCOCCOCCOCCC(=O)NCC(=O)NCC(=O)N[C@H](Cc1ccc(O)cc1)C(=O)N[C@@H](Cc1ccccc1)C(=O)N[C@@H](CC(C)C)C(=O)N1CCC[C@H]1C(=O)N[C@H](CO)C(=O)N[C@@H](CCC(N)=O)C(=O)N[C@@H](Cc1ccccc1)C(=O)N[C@H](C)C(=O)N1Cc2ccccc2C[C@H]1C(=O)N[C@@H](CO)C(=O)O [OK-101] ({Palmitoyl-PEG8}-GG[dY]FLP[dS]QF[dA][Tic]S-OH)
